Some results are limits rather than exact numbers.

The target in this assay is rat TRPV1 (Rattus norvegicus (Rat), UniProt O35433). The settings on record: read-out: Rat IC50.
rat TRPV1, sequence (O35433 whole entry): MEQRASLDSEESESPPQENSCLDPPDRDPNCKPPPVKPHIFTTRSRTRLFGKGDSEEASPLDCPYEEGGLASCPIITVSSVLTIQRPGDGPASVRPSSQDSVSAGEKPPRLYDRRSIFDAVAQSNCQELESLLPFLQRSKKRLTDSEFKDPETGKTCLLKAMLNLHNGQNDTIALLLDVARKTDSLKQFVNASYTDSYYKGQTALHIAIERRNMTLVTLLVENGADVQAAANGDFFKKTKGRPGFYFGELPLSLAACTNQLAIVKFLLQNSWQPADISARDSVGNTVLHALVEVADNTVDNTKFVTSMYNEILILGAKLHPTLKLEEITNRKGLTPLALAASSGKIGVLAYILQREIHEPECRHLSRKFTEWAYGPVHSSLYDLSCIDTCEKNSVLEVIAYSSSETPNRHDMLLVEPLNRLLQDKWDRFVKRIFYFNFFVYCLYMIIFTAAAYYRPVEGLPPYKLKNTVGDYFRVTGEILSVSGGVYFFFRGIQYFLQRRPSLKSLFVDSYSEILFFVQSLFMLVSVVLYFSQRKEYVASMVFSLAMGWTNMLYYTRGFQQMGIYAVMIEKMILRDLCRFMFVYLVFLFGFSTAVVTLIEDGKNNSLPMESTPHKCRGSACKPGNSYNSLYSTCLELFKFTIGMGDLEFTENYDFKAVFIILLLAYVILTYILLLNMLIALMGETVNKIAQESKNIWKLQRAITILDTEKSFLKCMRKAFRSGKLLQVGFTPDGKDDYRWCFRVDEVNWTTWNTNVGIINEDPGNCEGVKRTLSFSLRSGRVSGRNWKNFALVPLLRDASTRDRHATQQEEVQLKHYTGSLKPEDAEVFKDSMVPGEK
Description: Biological Testing: Functional Assay: Block of Capsaicin-Induced Ca^2+ Influx A. Human Assay
Cells were passaged frequently, every 3-5 days, to avoid overgrowth, depletion of essential medium components, or acidic medium exposure. Cells were passaged using a brief wash in 0.05% trypsin with 1 mM EDTA, followed by dissociation in divalent-free phosphate-buffered saline (Hyclone #SH30028.02). […] The assay buffer was composed of 130 mM NaCl, 2 mM KCl, 2 mM MgCl2, 10 mM HEPES, 5 mM glucose, and either 2 mM or 20 μM CaCl2. On the day of the experiment, the culture medium was replaced with 2 mM calcium assay buffer using an automated plate washer (ELx405; Biotek, VT). […] After loading the cells, the dye solution was replaced with 50 μL/well of 20 μM calcium assay buffer using the ELx405 plate washer. Test compounds (50 μL/well) were added to the plate and incubated for 30 min. […] The IC50 values were determined. […] The contents of the wells were mixed 3 times (40 μL mix volume) immediately after the additions were made. Concentration dependence of block was determined by exposing each well of cells in duplicate rows of a 96 well plate to a serial dilution of test compound. The concentration series usually started at 10 μM with a three-fold serial decrement in concentration. The magnitude of the capsaicin response was determined by measuring the change in fluo3 fluorescence before and 100 seconds after the addition of the agonist. Data were analyzed using a non-linear regression program (Origin; OriginLab, MA). IC50 values shown are the average (mean) of the results obtained.
The assay was performed as described above, using HEK293 cells transfected with rat TRPV1 (rTRPV1/HEK293). […] IC50 values shown are the average (mean) of the results obtained.
As for `O=S(=O)(c1ccc(Nc2nc(SCc3ccccc3)nc3c2CCN(c2ncccc2C(F)(F)F)CC3)cc1)C(F)(F)F` [Example 359, 2-[(Phenylmethyl)sulfanyl]-7-[3-(trifluoromethyl)pyridin-2-yl]-N-{4-[(trifluoromethyl)sulfonyl]phenyl}-6,7,8,9-tetrahydro-5H-pyrimido[4,5-d]azepin-4-amine], the IC50 came out at 320 nM.
Under `O=S(=O)(c1ccc(Nc2nc(SC3CCCCC3)nc3c2CCN(c2ncccc2C(F)(F)F)CC3)cc1)C(F)(F)F` [Example 360, 2-(Cyclohexylsulfanyl)-7-[3-(trifluoromethyl)pyridin-2-yl]-N-{4-[(trifluoromethyl)sulfonyl]phenyl}-6,7,8,9-tetrahydro-5H-pyrimido[4,5-d]azepin-4-amine] stands 250 nM; under `CC(C)Sc1nc2c(c(Nc3ccc(S(=O)(=O)C(F)(F)F)cc3)n1)CCN(c1ncccc1C(F)(F)F)CC2` [Example 361, 2-[(1-Methylethyl)sulfanyl]-7-[3-(trifluoromethyl)pyridin-2-yl]-N-{4-[(trifluoromethyl)sulfonyl]phenyl}-6,7,8,9-tetrahydro-5H-pyrimido[4,5-d]azepin-4-amine], 1530 nM.
As to `CC(O)CSc1nc2c(c(Nc3ccc(S(=O)(=O)C(F)(F)F)cc3)n1)CCN(c1ncccc1C(F)(F)F)CC2` (centres unmarked) [Example 362, 1-({7-[3-(Trifluoromethyl)pyridin-2-yl]-4-({4-[(trifluoromethyl)sulfonyl]phenyl}amino)-6,7,8,9-tetrahydro-5H-pyrimido[4,5-d]azepin-2-yl}sulfanyl)propan-2-ol], the IC50 was 190 nM.
Under `Cc1cc(C(F)(F)F)ccc1Nc1nc(SCc2ccccc2)nc2c1CCN(c1ncccc1C(F)(F)F)CC2` [Example 364, N-[2-Methyl-4-(trifluoromethyl)phenyl]-2-[(phenylmethyl)sulfanyl]-7-[3-(trifluoromethyl)pyridin-2-yl]-6,7,8,9-tetrahydro-5H-pyrimido[4,5-d]azepin-4-amine] stands 1180 nM; under `Cc1cc(C(F)(F)F)ccc1Nc1nc(SC(C)C)nc2c1CCN(c1ncccc1C(F)(F)F)CC2` [Example 366, 2-[(1-Methylethyl)sulfanyl]-N-[2-methyl-4-(trifluoromethyl)phenyl]-7-[3-(trifluoromethyl)pyridin-2-yl]-6,7,8,9-tetrahydro-5H-pyrimido[4,5-d]azepin-4-amine], 130 nM; under `Cc1cc(C(F)(F)F)ccc1Nc1nc(SCC(C)O)nc2c1CCN(c1ncccc1C(F)(F)F)CC2` (centres unmarked) [Example 367, 1-[(4-{[2-Methyl-4-(trifluoromethyl)phenyl]amino}-7-[3-(trifluoromethyl)pyridin-2-yl]-6,7,8,9-tetrahydro-5H-pyrimido[4,5-d]azepin-2-yl)sulfanyl]propan-2-ol], above 6670 nM.
The value for `Cc1cc(C(F)(F)F)ccc1Nc1nc(SC2CCOC2C)nc2c1CCN(c1ncccc1C(F)(F)F)CC2` (stereo not drawn) [Example 368, 2,5-Anhydro-1,4-dideoxy-3-S-(4-{[2-methyl-4-(trifluoromethyl)phenyl]amino}-7-[3-(trifluoromethyl)pyridin-2-yl]-6,7,8,9-tetrahydro-5H-pyrimido[4,5-d]azepin-2-yl)-3-thiopentitol] was 20 nM.
As for `Cc1cc(C(F)(F)F)ccc1Nc1nc(SC2CCOC2C)nc2c1CCN(c1ncccc1C(F)(F)F)CC2` (stereo not drawn) [Example 369, 2,5-Anhydro-1,4-dideoxy-3-S-(4-{[2-methyl-4-(trifluoromethyl)phenyl]amino}-7-[3-(trifluoromethyl)pyridin-2-yl]-6,7,8,9-tetrahydro-5H-pyrimido[4,5-d]azepin-2-yl)-3-thiopentitol], the IC50 was 10 nM.
Under `CN1CCC(C)(C)c2ccc(Nc3nc(SCc4ccccc4)nc4c3CCN(c3ncccc3C(F)(F)F)CC4)cc21` [Example 370, 2-[(Phenylmethyl)sulfanyl]-7-[3-(trifluoromethyl)pyridin-2-yl]-N-(1,4,4-trimethyl-1,2,3,4-tetrahydroquinolin-7-yl)-6,7,8,9-tetrahydro-5H-pyrimido[4,5-d]azepin-4-amine] stands 2610 nM; under `CN1CCC(C)(C)c2ccc(Nc3nc(SC4CCCCC4)nc4c3CCN(c3ncccc3C(F)(F)F)CC4)cc21` [Example 371, 2-(Cyclohexylsulfanyl)-7-[3-(trifluoromethyl)pyridin-2-yl]-N-(1,4,4-trimethyl-1,2,3,4-tetrahydroquinolin-7-yl)-6,7,8,9-tetrahydro-5H-pyrimido[4,5-d]azepin-4-amine], above 6670 nM; under `CC(C)Sc1nc2c(c(Nc3ccc4c(c3)N(C)CCC4(C)C)n1)CCN(c1ncccc1C(F)(F)F)CC2` [Example 372, 2-[(1-Methylethyl)sulfanyl]-7-[3-(trifluoromethyl)pyridin-2-yl]-N-(1,4,4-trimethyl-1,2,3,4-tetrahydroquinolin-7-yl)-6,7,8,9-tetrahydro-5H-pyrimido[4,5-d]azepin-4-amine], 330 nM.
The value for `CC1OCCC1Sc1nc2c(c(Nc3ccc4c(c3)N(C)CCC4(C)C)n1)CCN(c1ncccc1C(F)(F)F)CC2` (stereo not drawn) [Example 374, 2,5-Anhydro-1,4-dideoxy-3-thio-3-S-{7-[3-(trifluoromethyl)pyridin-2-yl]-4-[(1,4,4-trimethyl-1,2,3,4-tetrahydroquinolin-7-yl)amino]-6,7,8,9-tetrahydro-5H-pyrimido[4,5-d]azepin-2-yl}pentitol] was 4 nM.
Under `CCCSc1nc2c(c(Nc3ccc(C(F)(F)F)cc3)n1)CCN(c1ncccc1C(F)(F)F)CC2` [Example 375, 2-(Propylsulfanyl)-N-[4-(trifluoromethyl)phenyl]-7-[3-(trifluoromethyl)pyridin-2-yl]-6,7,8,9-tetrahydro-5H-pyrimido[4,5-d]azepin-4-amine] stands above 6670 nM; under `COC(=O)C(C)(C)c1ccc(Nc2nc(N3CCOCC3)nc3c2CCN(c2ncccc2C(F)(F)F)CC3)cc1` [Example 376, 2-Methyl-2-{4-[2-morpholin-4-yl-7-(3-trifluoromethyl-pyridin-2-yl)-6,7,8,9-tetrahydro-5H-pyrimido[4,5-d]azepin-4-ylamino]-phenyl}-propionic acid methyl ester], 110 nM.
With `CC(C)c1nc2c(c(Nc3ccc(N4CCCC4)cc3)n1)CCN(c1ncccc1C(F)(F)F)CC2` [Example 377, 2-(1-Methylethyl)-N-(4-pyrrolidin-1-ylphenyl)-7-[3-(trifluoromethyl)pyridin-2-yl]-6,7,8,9-tetrahydro-5H-pyrimido[4,5-d]azepin-4-amine], the IC50 is 1410 nM.
`CN(C)S(=O)(=O)c1ccc(Nc2nc(N3CCOCC3)nc3c2CCN(c2ncccc2C(F)(F)F)CC3)cc1` [Example 379, N,N-Dimethyl-4-({2-morpholin-4-yl-7-[3-(trifluoromethyl)pyridin-2-yl]-6,7,8,9-tetrahydro-5H-pyrimido[4,5-d]azepin-4-yl}amino)benzenesulfonamide]: the IC50 was 70 nM.
Under `CC(=O)c1ccc(Nc2nc(N3CCOCC3)nc3c2CCN(c2ncccc2C(F)(F)F)CC3)cc1` [Example 380, 1-[4-({2-Morpholin-4-yl-7-[3-(trifluoromethyl)pyridin-2-yl]-6,7,8,9-tetrahydro-5H-pyrimido[4,5-d]azepin-4-yl}amino)phenyl]ethanone] stands 230 nM.
In the case of `FC(F)(F)c1ccc(Nc2nc(N3CCOCC3)nc3c2CCN(c2ncccc2C(F)(F)F)CC3)cc1Cl` [Example 381, (3-Chloro-4-trifluoromethyl-phenyl)-[2-morpholin-4-yl-7-(3-trifluoromethyl-pyridin-2-yl)-6,7,8,9-tetrahydro-5H-pyrimido[4,5-d]azepin-4-yl]-amine], the IC50 came out at 40 nM.
For `CC(C)(C#N)c1ccc(Nc2nc(N3CCOCC3)nc3c2CCN(c2ncccc2C(F)(F)F)CC3)cc1` [Example 382, 2-Methyl-2-{4-[2-morpholin-4-yl-7-(3-trifluoromethyl-pyridin-2-yl)-6,7,8,9-tetrahydro-5H-pyrimido[4,5-d]azepin-4-ylamino]-phenyl}-propionitrile], the IC50 was found to be 40 nM.
The value for `CC(C)(CO)c1ccc(Nc2nc(N3CCCCC3)nc3c2CCN(c2ncccc2C(F)(F)F)CC3)cc1` [Example 383, 2-Methyl-2-{4-[2-piperidin-1-yl-7-(3-trifluoromethyl-pyridin-2-yl)-6,7,8,9-tetrahydro-5H-pyrimido[4,5-d]azepin-4-ylamino]-phenyl}-propan-1-ol] was 160 nM; that for `CC(C)(C#N)c1ccc(Nc2nc(N3CCCCC3)nc3c2CCN(c2ncccc2C(F)(F)F)CC3)cc1` [Example 384, 2-Methyl-2-{4-[2-piperidin-1-yl-7-(3-trifluoromethyl-pyridin-2-yl)-6,7,8,9-tetrahydro-5H-pyrimido[4,5-d]azepin-4-ylamino]-phenyl}-propionitrile] was 40 nM; that for `COC(=O)c1ccc(Nc2nc(N3CCCCC3)nc3c2CCN(c2ncccc2C(F)(F)F)CC3)cc1F` [Example 385, 2-Fluoro-4-[2-piperidin-1-yl-7-(3-trifluoromethyl-pyridin-2-yl)-6,7,8,9-tetrahydro-5H-pyrimido[4,5-d]azepin-4-ylamino]-benzoic acid methyl ester] was 820 nM.
Under `COC(=O)c1ccc(Nc2nc(N3CCCCC3)nc3c2CCN(c2ncccc2C(F)(F)F)CC3)cc1` [Example 387, 4-[2-Piperidin-1-yl-7-(3-trifluoromethyl-pyridin-2-yl)-6,7,8,9-tetrahydro-5H-pyrimido[4,5-d]azepin-4-ylamino]-benzoic acid methyl ester] stands 550 nM.
The value for `CC(C)(O)c1ccc(Nc2nc(N3CCOCC3)nc3c2CCN(c2ncccc2C(F)(F)F)CC3)cc1` [Example 389, 2-{4-[2-Morpholin-4-yl-7-(3-trifluoromethyl-pyridin-2-yl)-6,7,8,9-tetrahydro-5H-pyrimido[4,5-d]azepin-4-ylamino]-phenyl}-propan-2-ol] was 320 nM; that for `FC(F)(F)c1ccc(Nc2nc(N3CCCCC3)nc3c2CCN(c2ncccc2C(F)(F)F)CC3)nc1Cl` [Example 390, (6-Chloro-5-trifluoromethyl-pyridin-2-yl)-[2-piperidin-1-yl-7-(3-trifluoromethyl-pyridin-2-yl)-6,7,8,9-tetrahydro-5H-pyrimido[4,5-d]azepin-4-yl]-amine] was 90 nM.

As a reminder, the IC50 is the concentration that inhibits the measured activity by half.

Values taken from patent US9422293B2 (priority 2006, dated 2016).
